AC50 and EC50 data for 41 compounds are collected here from ChEMBL document CHEMBL1201862, “PubChem BioAssay data set” (2004).

For one data set, the target named is T1, Cytochrome P450 1A2 (Homo sapiens, UniProt P05177).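 Further: PubChem cytochrome P450 panel assay, CYP1A2 panel member.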
T1 sequence (P05177 whole entry): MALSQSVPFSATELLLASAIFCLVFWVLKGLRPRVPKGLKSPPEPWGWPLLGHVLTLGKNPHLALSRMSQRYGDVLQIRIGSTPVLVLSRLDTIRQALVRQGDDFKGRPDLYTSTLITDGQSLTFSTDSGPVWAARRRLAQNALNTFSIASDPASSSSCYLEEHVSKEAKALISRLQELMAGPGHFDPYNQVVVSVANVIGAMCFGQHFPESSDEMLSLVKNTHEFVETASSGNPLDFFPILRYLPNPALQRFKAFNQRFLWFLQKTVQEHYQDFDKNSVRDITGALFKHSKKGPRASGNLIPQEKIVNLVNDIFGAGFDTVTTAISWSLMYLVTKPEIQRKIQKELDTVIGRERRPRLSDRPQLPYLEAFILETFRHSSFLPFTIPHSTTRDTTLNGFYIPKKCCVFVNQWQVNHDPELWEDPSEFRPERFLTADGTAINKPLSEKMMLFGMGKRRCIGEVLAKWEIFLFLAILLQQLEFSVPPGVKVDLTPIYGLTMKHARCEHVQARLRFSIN

The target of data set [1] is T2, Heat shock factor protein 1 (Mus musculus, UniProt P38532).
T2 sequence (P38532 whole entry): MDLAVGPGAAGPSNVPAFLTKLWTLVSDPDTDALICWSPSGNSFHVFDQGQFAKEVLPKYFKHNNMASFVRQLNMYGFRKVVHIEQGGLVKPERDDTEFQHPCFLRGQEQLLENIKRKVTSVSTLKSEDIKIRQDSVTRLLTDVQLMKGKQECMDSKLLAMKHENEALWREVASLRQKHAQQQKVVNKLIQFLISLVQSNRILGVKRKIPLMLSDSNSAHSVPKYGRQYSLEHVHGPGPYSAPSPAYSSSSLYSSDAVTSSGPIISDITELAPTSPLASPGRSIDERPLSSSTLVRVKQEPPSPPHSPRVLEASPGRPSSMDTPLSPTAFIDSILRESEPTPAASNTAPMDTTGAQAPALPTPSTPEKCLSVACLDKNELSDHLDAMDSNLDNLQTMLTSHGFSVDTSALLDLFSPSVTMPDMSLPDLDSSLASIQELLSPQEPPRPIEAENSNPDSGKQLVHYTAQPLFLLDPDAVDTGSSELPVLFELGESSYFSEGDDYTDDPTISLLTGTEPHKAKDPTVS
The data set is described as follows: enhancement of HSF1-driven luciferase signal – cell-based, NIH3T3, luminescence, dose retest, confirmation (AID 435004).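 Further: stress induced by proteasome inhibitor MG132 added 30 min after compound; luciferase reporter driven by HSF1 response element in NIH3T3 cells; actives raise luminescence as potentiators of the MG132 stress response.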 Type of data set: functional.

The nature of data set [2]: Trypanosoma cruzi growth suppression in host cells – NIH3T3 host cells, beta-gal luminescence, confirmation (AID 2044).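 Further: intracellular parasites grown in NIH/3T3 mouse fibroblasts as host cells; luminescent beta-galactosidase reporter signal from transgenic T. cruzi replicating inside host cells; inhibitors lower the luminescence signal.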 Format: functional, cell-based.
A short description of data set [3]: NIH3T3 cell viability loss – ATP luminescence, mouse fibroblasts, counter-screen, dose response (AID 2010).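 Further: cells exposed to compound for about 90 hours before reading.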 Type of data set: functional, cell-based. A general note: Counterscreens check selectivity or assay interference.
In another data set the target is Cytochrome P450 2C19 (Homo sapiens, UniProt P33261). The data set is described as follows: Cytochrome panel assay with activity outcomes. Panel member name: p450-cyp2c19 Compounds with AC50 equal or less than 10 uM are considered active. Format: functional.
Cytochrome P450 2C19, sequence (P33261 whole entry): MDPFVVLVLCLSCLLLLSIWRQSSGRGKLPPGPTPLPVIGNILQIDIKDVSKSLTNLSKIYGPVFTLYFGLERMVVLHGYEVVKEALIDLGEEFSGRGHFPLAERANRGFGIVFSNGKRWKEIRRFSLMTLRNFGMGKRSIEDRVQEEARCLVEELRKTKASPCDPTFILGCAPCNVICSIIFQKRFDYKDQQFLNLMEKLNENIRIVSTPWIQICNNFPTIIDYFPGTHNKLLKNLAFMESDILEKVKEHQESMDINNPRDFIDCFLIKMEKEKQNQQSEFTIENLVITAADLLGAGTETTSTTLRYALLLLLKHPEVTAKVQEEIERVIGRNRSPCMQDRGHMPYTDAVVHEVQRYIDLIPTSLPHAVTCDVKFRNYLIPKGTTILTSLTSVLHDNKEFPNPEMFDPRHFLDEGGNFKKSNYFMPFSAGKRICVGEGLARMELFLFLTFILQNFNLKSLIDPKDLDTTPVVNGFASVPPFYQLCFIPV
Data set [4] deals with Streptococcus sp. 'group A'. The data set is described as follows: Streptococcus pyogenes SK(-)GAS viability under kanamycin – luminescence, BacTiterGlo, confirmation, counter-screen for streptokinase expression inhibitor project, dose response (AID 1900). Format: functional, organism-based.
For the next data set, the target named is T3, Streptokinase A (Streptococcus pyogenes serotype M1, UniProt P10520).
T3 sequence (P10520 whole entry): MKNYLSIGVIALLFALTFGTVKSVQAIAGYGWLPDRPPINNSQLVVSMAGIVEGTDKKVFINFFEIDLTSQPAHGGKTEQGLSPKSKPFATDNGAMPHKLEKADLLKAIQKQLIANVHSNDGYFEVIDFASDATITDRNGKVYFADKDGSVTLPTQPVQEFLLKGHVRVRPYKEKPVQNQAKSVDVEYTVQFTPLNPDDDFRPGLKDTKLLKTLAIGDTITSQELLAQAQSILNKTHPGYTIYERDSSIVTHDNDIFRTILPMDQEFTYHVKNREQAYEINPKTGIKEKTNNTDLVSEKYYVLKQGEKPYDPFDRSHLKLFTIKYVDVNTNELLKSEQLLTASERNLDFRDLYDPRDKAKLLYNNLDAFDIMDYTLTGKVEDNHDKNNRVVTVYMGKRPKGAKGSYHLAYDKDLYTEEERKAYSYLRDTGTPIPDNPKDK
The data set is described as follows: viability-normalized secreted streptokinase activity reduction – plasminogen activation absorbance, OD405, dose response (AID 1914).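 Further: secreted streptokinase activity via plasminogen activation per viability signal from cell pellet.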 Type of data set: functional, Streptococcus pyogenes M1 GAS.

Another data set relates to Streptococcus. The data set is described as follows: GAS UMAA2166 growth inhibition – luminescence, BacTiterGlo, counter-screen for streptokinase expression inhibitor project, dose response (AID 1915).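 Further: potency for reduction of bacterial viability or growth.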 Format: functional, organism-based.
The target in another data set is Cytochrome P450 3A4 (Homo sapiens, UniProt P08684).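 Further: CYP3A4 tested as one member of a cytochrome P450 panel screen.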
Cytochrome P450 3A4, sequence (P08684 whole entry): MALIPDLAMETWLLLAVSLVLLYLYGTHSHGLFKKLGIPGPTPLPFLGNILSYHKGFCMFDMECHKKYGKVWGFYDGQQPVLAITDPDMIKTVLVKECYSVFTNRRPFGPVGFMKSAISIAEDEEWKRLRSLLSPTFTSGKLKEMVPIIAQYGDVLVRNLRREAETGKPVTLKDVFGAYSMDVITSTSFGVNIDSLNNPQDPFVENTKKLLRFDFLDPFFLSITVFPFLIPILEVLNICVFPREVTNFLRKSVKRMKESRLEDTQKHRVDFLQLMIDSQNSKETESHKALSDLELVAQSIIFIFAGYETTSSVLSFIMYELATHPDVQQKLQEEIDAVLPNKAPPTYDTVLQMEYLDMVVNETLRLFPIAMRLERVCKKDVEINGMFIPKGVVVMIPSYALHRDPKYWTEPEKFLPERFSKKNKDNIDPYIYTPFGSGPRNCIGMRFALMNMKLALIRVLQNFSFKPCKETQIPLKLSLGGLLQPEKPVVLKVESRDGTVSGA

Structures are written as SMILES. Active and inactive are the calls of the source.

Broadly, the AC50 is the concentration giving half of the maximal activity seen. As for `O=C(Nc1nnc(C2CC2)s1)c1cc(S(=O)(=O)N2CCN(c3ccccc3)CC2)ccc1Cl`, the AC50 at Cytochrome P450 1A2 is 11.2 µM (inconclusive). By EC50 is commonly meant the concentration that produces a half-maximal response. As for `O=C(Nc1ccc2c(c1)C(=O)OC2)c1ccc(Cl)cc1`, the EC50 in [1] was > 260 µM (inactive). Take `O=S(=O)(O)c1ccc(O)c2ncccc12`: the AC50 on Cytochrome P450 1A2 was 0.631 µM (inconclusive). Turning to `Cc1cccc(C(=O)OC(C)CN2CCN(C)CC2)c1` (centres undefined), the concentration giving a half-maximal response (EC50) in data set [2] was 0.994 µM (active); in data set [3], > 30 µM (not active). In the case of `Cc1ccc(C(CC(=O)c2ccco2)SCCO)cc1` (centres undefined), the AC50 at Cytochrome P450 1A2 is 25.1 µM (inconclusive). The same measure, in the same setting: in the case of `O=C(c1cccc(F)c1)N1CCC2(CCCN(c3cccc(-c4ccccc4)c3)C2)CC1` it was 15.8 µM (inconclusive).

For the compound `COc1ccccc1NC(=O)C1=C(C)Nc2nc(-c3ccc(N(C)C)cc3)nn2C1c1ccncc1` (centres undefined), the AC50 at Cytochrome P450 1A2 is 12.6 µM (inconclusive). As to `Cn1c(=O)c2nc(CCCCC(=O)O)[nH]c2n(C)c1=O`, the half-maximal activity concentration (AC50) entry at Cytochrome P450 2C19 is “inconclusive”; on Cytochrome P450 1A2 it was 0.794 µM (inconclusive). Regarding `COc1cccc(Nc2c3c(nc4c(-c5ccccc5)c(C)nn24)CCC3)c1`, the half-maximal effective concentration (EC50) in [4] is 15 µM (active); at Streptokinase A, 8.91 µM (active); in the data set with Streptococcus, > 150 µM (not active). On to `O=S(=O)(c1ccc(F)cc1)c1nc(-c2ccccc2)oc1N1CCOCC1`, for which the EC50 (in data set [4]; at Streptokinase A; in the data set on Streptococcus) was > 150 µM (not active) each time. With `O=C(Nc1cc(S(=O)(=O)N2CCOCC2)ccc1-n1cncn1)c1ccc(Cl)cc1`, the 50% effective concentration (EC50) in data set [2] was 2.54 µM (active); in data set [3], > 60 µM (not active). As for `CCCSc1nc(C)cc(C)c1C(N)=O`, the AC50 on Cytochrome P450 1A2 was 28.2 µM (inconclusive).

In the case of `COc1ccc(-c2c(C)nn3c(Cl)c(C)c(C)nc23)cc1`, in data set [1], the EC50 was 108 µM (active). Turning to `CC1=C(C(=O)N2CCOCC2)C(c2c(C)cc(C)cc2C)NC(S)=N1` (centres undefined), in data set [1], the EC50 is > 260 µM (inactive). `COc1ccccc1CN1CCN(Cc2ccc(Cl)cc2)CC1`: the values for the concentration for a half-maximal effect (EC50) in data set [2] and in data set [3] were 0.439 µM (active) and > 60 µM (not active), respectively. Regarding `COC(=O)Cc1ccc(NC(=O)c2ccc(C)c(C)c2)cc1`, the EC50 in data set [1] was 69.4 µM (active).

For `COc1ccc(-n2nc([N+](=O)[O-])c(NCCc3ccc(Cl)cc3)[n+]2[O-])cc1`, the EC50 in [2] was 0.602 µM (active); in [3], > 60 µM (not active). Regarding `Cc1nn2c(O)c3c(nc2c1-c1ccc(F)cc1)CCCC3`, the results for the EC50 in data set [2] and in data set [3] were 0.451 µM (active) and 10.1 µM (active), respectively. In the case of `CCCCOc1ccc(CSc2nc[nH]n2)cc1`, the EC50 in data set [1] was 106 µM (active). Consider `O=S(=O)(NCC(c1cccnc1)N1CCN(c2ccccc2)CC1)c1cc(F)ccc1F` (centres undefined), for which the EC50 is 0.508 µM (active) in data set [2] and > 60 µM (not active) in data set [3].

For `CCn1c(C(=O)NCc2cccnc2)cc2sc(Cl)cc21`, the figures for the EC50 in data set [2] and in [3] were 1.12 µM (active) and > 60 µM (not active), respectively. Regarding `CC1(C)Cc2c(C#N)c(N3CCCC3)nc(-c3ccco3)c2CO1`, the EC50 in data set [1] is > 260 µM (inactive). As for `Cn1cc(CNC(=O)c2sc3cccc(Cl)c3c2Cl)cn1`, in data set [1], the EC50 was > 260 µM (inactive). Take `Cn1ccc(C(=O)N/N=C/c2ccncc2)n1`: the EC50 in data set [1] was > 260 µM (inactive). For `Cc1cccc(C)c1N1CCN(S(=O)(=O)c2ccc(F)cc2)CC1`, the EC50 in data set [1] was > 260 µM (inactive). For `COC(=O)C1(O)CC(CC(C)C)=NN1C(=O)c1ccccc1` (centres undefined), the EC50 in data set [1] is > 260 µM (inactive). Same read-out and setting: in the case of `CCOC(=O)Cn1c(S(=O)(=O)Cc2ccc(F)cc2)nc(-c2ccccc2)c1-c1ccccc1` it was > 260 µM (inactive); in that of `CCCCN(C(=O)/C=C/c1ccco1)c1c(N)n(CCC)c(=O)[nH]c1=O`, > 260 µM (inactive). For `CCOc1ccc2nc(N(CCN(CC)CC)C(=O)c3ccc([N+](=O)[O-])cc3)sc2c1`, the 50% effective concentration (EC50) was 0.184 µM (active) in data set [2] and > 60 µM (not active) in data set [3]. Take `CC1(C)CC(c2nc(-c3ccc(Cl)cc3)cs2)CCS1` (centres undefined): the EC50 in [4] was 9.13 µM (active); on Streptokinase A, 13.9 µM (active); in the data set on Streptococcus it was > 150 µM (not active). Take `O=C1[C@H]2[C@@H](c3ccc(Cl)cc3)N3C(=O)N(c4cccc(Br)c4)C(=O)[C@@]3(Cc3ccc(Cl)cc3)[C@H]2C(=O)N1C1CCCCC1`: the EC50 in [2] is 1.24 µM (active); in data set [3], > 60 µM (not active). For the compound `CCOc1ccc(NC(=O)CSc2nnc(Cc3ccccc3)c(=O)n2N)cc1`, the EC50 (in [4]; on Streptokinase A; in the data set with Streptococcus) was > 150 µM (not active) in each case.

For `N[C@H](Cc1ccc(Cl)cc1)C(=O)O`, at Cytochrome P450 1A2, the AC50 was 2 µM (inconclusive).

For `CC(C)(C)c1cc2cccnc2n1Cc1cccc(F)c1`, the half-maximal activity concentration (AC50) was 11.2 µM (inconclusive) on Cytochrome P450 2C19 (read-out: AC50), 12.6 µM (inconclusive) on Cytochrome P450 1A2 and 15.8 µM (inconclusive) on Cytochrome P450 3A4. On to `COc1ccc([N+](=O)[O-])cc1NC(=S)NC(NC(=O)C(c1ccccc1)c1ccccc1)C(Cl)(Cl)Cl` (centres undefined), for which the EC50 at Streptokinase A is > 150 µM (not active). For the compound `CCOC(=O)C(CCOc1cccc(CC)c1)C(=O)OCC`, in data set [1], the EC50 was 59.6 µM (active).

As for `CC1=CC(=O)C2=C(C)C[C@@H](O)[C@@H]3[C@@H](OC(=O)[C@H]3C)[C@H]12`, the AC50 at Cytochrome P450 1A2 was 25.1 µM (inconclusive). Take `COc1ccc2c(c1)N(C[C@@H](C)CN(C)C)c1ccccc1S2` [DEXTROMEPROMAZINE]: the values for the AC50 on Cytochrome P450 1A2 and at Cytochrome P450 3A4 were 15.8 µM (inconclusive) and 7.94 µM (inconclusive), respectively.

Take `CCOC(=O)c1nnn(-c2nonc2-n2cccc2)c1CN1CCC(C)CC1`: the EC50 in data set [4] was 9.92 µM (active); at Streptokinase A it was 14.9 µM (active); with Streptococcus, > 150 µM (not active).

`CCOc1ccc(NC(=O)Cn2nnc(C(=O)NCc3ccco3)c2N)cc1`: in data set [1], the EC50 is > 260 µM (inactive). For `CC1(C)Cc2c(C#N)c(N)n(-c3ccccc3)c(=S)c2CO1`, in data set [1], the EC50 is > 260 µM (inactive).
